In patent US20250091994A1, “RAS/RAF BINDING INHIBITOR COMPOUND” (NATIONAL UNIVERSITY CORPORATION KOBE UNIVERSITY, priority 2021, published 2025) one finds inhibition data, which are given here for one molecule.

Holding throughout (type): cell-based
Test [1] relates to phosphorylated ERK (pERK) in HL60 cells. The experiment in a line: Ras-Raf signaling inhibition at culture cell level, pERK. The conditions noted are these: Homo sapiens, HL-60; HL60 (N-RasQ61L), 1 μM test compound, 3 hours. On the procedure: The Ras-Raf signaling inhibitory activity of the compound of the present invention at a culture cell level was evaluated by the following method.
The HL60 cells described in Test Example 2 suspended in a medium containing 0.5% (v/v) FBS with each compound solution (final DMSO concentration: 1%), were seeded on a 12-well plate (2 to 4×10^5 cells/well), and the resulting mixture was then cultured at 37° C. in the presence of 5% CO2 for 3 hours.
After completion of the cell culture, proteins were extracted from the cells, using RIPA Buffer (Nacalai Tesque) containing a mixture of protease inhibitors and phosphatase inhibitors. An equivalent amount of protein was separated by standard SDS-PAGE and was then transferred onto a PVDF membrane. In order to detect the activation (phosphorylation) of MEK and ERK, downstream molecules of the Ras-Raf signaling pathway, the membrane was probed with 1000-fold diluted primary antibodies {phosphorylated MEK (pMEK: #9121), phosphorylated ERK (pERK: #9101), total MEK (tMEK: #9122), and total ERK (tERK: 9102); all from Cell signaling}, and then with a 1000-fold diluted horseradish peroxidase-labeled secondary antibody against rabbit immunoglobulin G. The immunoreactive signals were colored with EzWestLumi One (ATTO), and were then detected by Fusion FX (Vilber). Signal intensity was quantified by pixel counting. Inhibition by the test compound was determined according to the following equation: […]

Test [2] deals with promyelocytic leukemia cells HL60 (N-RasQ61L). As to the kind of experiment: Cell growth inhibition, suspension cells HL60. The following applies: Homo sapiens, HL-60; 1 μM, 72 hours; read-out: HL-60 (NRasQ61L) % inhibition at 1 μM. The method, boiled down: (§1)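 Suspension cells, 2 to 4×10^4 per well, cultured with compound in medium with 0.5% FBS (1% DMSO final) for 72 h at 37° C, 5% CO2. Viable cells counted with Cell Counting Reagent; inhibition calculated relative to controls.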

The subject of test [3] is acute lymphoblastic leukemia cells CCRF-CEM (K-RasG12D). The experiment in a line: Cell growth inhibition, suspension cells CCRF-CEM. The following applies: Homo sapiens, 1 μM, 72 hours, read-out: CCRF-CEM (KRasG12D) % inhibition at 1 μM. The method, boiled down:
as §1

SMILES strings stand for the structures.

As usually defined, the inhibition is how much of the control response was suppressed. `CC(=O)N1/C(=C\c2nc3cc(C(=O)N4CCOCC4)ccc3s2)C(=O)c2ccccc21` [Example 47, (Z)-1-acetyl-2-((5-(morpholine-4-carbonyl)benzo [d]thiazol-2-yl)-methylene)-indolin-3-one]: the inhibition at 1 µM in test [1] worked out at 94%; in test [2], 89%; in test [3] it was 74%.
